This is an account of results in patent publication US20070190129A1, “Sustained release dosage forms of ziprasidone” (Pfizer Inc., priority 2003, published 2007).

≈ marks a conversion by molar mass, not a printed value. Where a name gives a salt, the structure may show the parent alone. Read-outs that look alike come from different tables or passages of the source.

Data set [1] is described as follows: In vitro membrane permeation test. The format is physicochemical. Particulars: for Concentration (permeate solution): feed MFD solution, 100 μgA/mL if all dissolved, 37° C. How it is done:
The ziprasidone coated crystals were evaluated in vitro using a membrane permeation test. An Accurel® PP 1E microporous polypropylene membrane was obtained from Membrana GmbH (Wuppertal, Germany). The membrane was washed in isopropyl alcohol and rinsed in methanol in a sonicating bath for 1 minute at ambient temperature, and then allowed to air dry at ambient temperature. The feed side of the membrane was then plasma-treated to render it hydrophilic by placing a sample of the membrane in a plasma chamber. The atmosphere of the plasma chamber was saturated with water vapor at a pressure of 550 mtorr. A plasma was then generated using radio frequency (RF) power inductively coupled into the chamber via annular electrodes at a power setting of 50 watts for 45 seconds. The contact angle of a drop of water placed on the surface of the plasma-treated membrane was about 40°. The contact angle of a drop of water placed on the permeate side of the same membrane was greater than about 110°.
A permeate reservoir was formed by gluing a sample of the plasma-treated membrane to a glass tube having an inside diameter of about 1 inch (2.54 cm) using an epoxy-based glue (LOCTITE® E-30CL HYSOL®) from Henkel Loctite Corp, Rocky Hill, Conn.). The feed-side of the membrane was oriented so that it was on the outside of the permeate reservoir, while the permeate-side of the membrane was oriented so that it was on the inside of the reservoir. The effective membrane area of the membrane on the permeate reservoir was about 4.9 cm^2. The permeate reservoir was placed into a glass feed reservoir. The feed reservoir was equipped with a magnetic stir bar and the reservoir was placed on a stir plate and the stir rate was set to 100 rpm during the test. The apparatus was placed into a chamber maintained at 37° C. for the duration of the test. Further details of the test apparatus and protocols are presented in co-pending U.S. patent application Ser. No. 60/557,897, entitled “Method and Device for Evaluation of Pharmaceutical Compositions,” filed Mar. 30, 2004 (attorney Docket No. PC25968), incorporated herein by reference.
To form the feed solution, a 1.39 mg sample of the coated crystals was weighed into the feed reservoir. To this was added 5 mL of MFD solution previously described, consisting of PBS solution containing 7.3 mM sodium taurocholic acid and 1.4 mM of 1-palmitoyl-2-oleyl-sn-glycero-3-phospocholine (0.5% NaTC/POPC). The concentration of ziprasidone in the feed solution, would have been 100 μgA/mL, if all of the ziprasidone had dissolved. The feed solution was mixed using a vortex mixer for 1 minute. Before the membrane contacted the feed solution, 5 mL of 60 wt% decenol in decane was placed into the permeate reservoir. Time zero in the test was the membrane was placed in contact with the feed solution. A […] aliquot of the permeate solution was collected at the times indicated. Samples were then diluted in […] IPA and analyzed using HPLC.
As a control, the membrane test was repeated using a 0.5-mg sample of crystalline ziprasidone alone, so that the concentration of drug would have been 100 μg/mL, if all of the drug had dissolved.
The maximum flux of drug across the membrane (in units of mgA/cm^2-min) was determined by performing a least-squares fit to the data in Table 3 from 0 to 60 minutes to obtain the slope, multiplying the slope by the permeate volume (5 mL), and dividing by the membrane area (4.9 cm^2).

The nature of a further data set: physchem. From the text:
To achieve efficacious blood levels over long periods of time, the sustained release dosage form should release ziprasidone to the gastrointestinal tract in a manner that allows ziprasidone to be absorbed for a sustained length of time. However, formulating ziprasidone into a sustained release dosage form presents a number of problems. […] Such low solubility at intestinal pH inhibits absorption of ziprasidone in the intestines.
In one embodiment, the solubility-improved form of ziprasidone is a high solubility salt form. It is known that some low-solubility drugs may be formulated in highly soluble salt forms that provide temporary improvements in the concentration of the drug in a use environment relative to another salt form of the drug.

Data set [2] can be described thus: Microcentrifuge dissolution test in MFD solution. The data set is classed as physicochemical. More on the design: AUC: concentration or dose not given beside the values. The settings on record: for AUC / Dissolved Ziprasidone Concentration: MFD solution pH 6.5, 37° C.; for Dissolved Ziprasidone Concentration: 200 μgA/mL if all dissolved. How it is done:
The tests were run in duplicate. The tubes were placed in a 37° C. temperature-controlled chamber, and 1.8 mL MFD solution at pH 6.5 and 290 mOsm/kg was added to each respective tube. The samples were quickly mixed using a vortex mixer for about 60 seconds. The samples were centrifuged at 13,000 G at 37° C. for 1 minute prior to collecting a sample. The resulting supernatant solution was then sampled and diluted 1:5 (by volume) with methanol. Samples were analyzed by high-performance liquid chromatography (HPLC) at a UV absorbance of 315 nm using a Zorbax RxC8 Reliance column and a mobile phase consisting of 55% (50 mM potassium dihydrogen phosphate, pH 6.5)/45% acetonitrile. Drug concentration was calculated by comparing UV absorbance of samples to the absorbance of drug standards. The contents of each tube were mixed on the vortex mixer and allowed to stand undisturbed at 37° C. until the next sample was taken. Samples were collected at 4, 10, 20, 40, 90, and 1200 minutes following administration to the MFD solution.
A similar test was performed with the crystalline ziprasidone free base as a control, and a sufficient amount of material was added so that the concentration of compound would have been 200 μgA/mL, if all of the ziprasidone had dissolved.
The concentration of ziprasidone obtained in these tests were used to determine the maximum dissolved concentration of ziprasidone (“MDC90”) and the area under the concentration-versus time (“AUC90”) during the initial ninety minutes.

For the next data set, the target named is D2 receptor (Homo sapiens, UniProt P14416). The settings on record: cited from earlier work.
Chain of D2 receptor (P14416 whole entry): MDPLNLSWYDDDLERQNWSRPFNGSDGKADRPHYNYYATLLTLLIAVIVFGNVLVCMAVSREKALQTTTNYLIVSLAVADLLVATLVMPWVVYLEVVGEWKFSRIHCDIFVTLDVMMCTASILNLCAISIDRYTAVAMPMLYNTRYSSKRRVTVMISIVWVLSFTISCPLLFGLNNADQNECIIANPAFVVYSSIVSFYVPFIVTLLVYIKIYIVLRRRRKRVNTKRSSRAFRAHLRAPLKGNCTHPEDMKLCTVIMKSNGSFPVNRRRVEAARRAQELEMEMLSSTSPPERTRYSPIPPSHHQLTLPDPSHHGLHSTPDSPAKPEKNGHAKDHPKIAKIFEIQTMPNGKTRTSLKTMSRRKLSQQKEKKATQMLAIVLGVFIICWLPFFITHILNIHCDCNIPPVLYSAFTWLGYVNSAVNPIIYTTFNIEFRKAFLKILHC
For data set [3] the following is noted: with food versus without; cited from earlier work.
[4] abbreviates: at the pH of the saturated solution.
[5] abbreviates: initial ninety minutes, MFD solution pH 6.5.

In the case of `Cl.O=C1Cc2cc(CCN3CCN(c4nsc5ccccc45)CC3)c(Cl)cc2N1` [Crystalline Ziprasidone HCl], the “Concentration (permeate solution)” value is 0.0 μgA/mL in data set [1] (0 min); 5.2 μgA/mL in data set [1] (20 min); 8.1 μgA/mL in data set [1] (40 min); 10.0 μgA/mL in data set [1] (60 min); 11.4 μgA/mL in data set [1] (90 min); 12.9 μgA/mL in data set [1] (120 min). Also, the “Concentration (permeate solution)” value in data set [1] (180 min) is recorded as 18.1 μgA/mL; in data set [1] (245 min), 20.9 μgA/mL; in data set [1] (360 min), 22.6 μgA/mL. This compound also had a Maximum flux of Ziprasidone in data set [1] (least-squares fit 0 to 60 minutes, permeate volume 5 mL, membrane area 4.9 cm^2) of 0.16 µgA/cm²·min.
For `O=C(O)c1ccccc1O` [Salicylate], in “physchem”, the “Aqueous Solubility” value came out at 58 µg/mL and the “pH of Saturated Solution” value turned out to be 5.5.
Turning to `O=C1Cc2cc(CCN3CCN(c4nsc5ccccc45)CC3)c(Cl)cc2N1` [Ziprasidone hydrochloride monohydrate, ziprasidone hydrochloride monohydrate], in data set [2] (initial ninety minutes, MFD solution pH 6.5, hydrochloride monohydrate), the “AUC90 (area under the concentration-versus time)” value is 1,700 min*μgA/mL. Also, the “MDC90 (maximum dissolved concentration of ziprasidone)” value in data set [2] (pH 6.5) worked out at 22 μgA/mL.
Turning to `O=C1Cc2cc(CCN3CCN(c4nsc5ccccc45)CC3)c(Cl)cc2N1` [ziprasidone, 5-[2-[4-(1,2-benzisothiazol-3-yl)-1-piperazinyl]ethyl]-6-chloro-1,2-dihydro-2H-indol-2-one], the “pH of Saturated Solution” value in “physchem” came to 9.8. Besides, the solubility was around 0.2 µg/mL (≈ 0.484 µM) in “physchem” (pH 6.5, aqueous buffer) and 0.2 µg/mL (≈ 0.484 µM) in “physchem” (pH 9.8, water). Moreover, in data set [2] (initial ninety minutes, MFD solution pH 6.5, listed as Ziprasidone free base), the “AUC90 (area under the concentration-versus time)” value is recorded as 120 min*μgA/mL. For the same compound, in data set [2] (pH 6.5), the “MDC90 (maximum dissolved concentration of ziprasidone)” value was 2 μgA/mL. In addition, the D2 occupancy result on D2 receptor (blood ziprasidone concentration 16 ng/ml) is “approximately 50%”; on D2 receptor (blood ziprasidone concentration 30 ng/ml), “approximately 65%”; at D2 receptor (blood ziprasidone concentration 50 ng/ml) it was “approximately 75%”. In addition, the “absorption in the presence of food” value in data set [3] is given as “increased up to two-fold”.
Fumarate: in the data set “physchem”, the “Aqueous Solubility” value was 2000 µg/mL and the “pH of Saturated Solution” value was found to be 2.5.
For the compound Maleate, in the data set “physchem”, the “Aqueous Solubility” value is 118 µg/mL and the “pH of Saturated Solution” value was determined as 4.3.
In the case of Phosphate, in the data set “physchem”, the “pH of Saturated Solution” value came to 2.3. For the same compound, in the data set “physchem” (setting [4]), the “Aqueous Solubility” value turned out to be 37 µg/mL.
Turning to Tosylate, the “pH of Saturated Solution” value in “physchem” was 6.0. The “Aqueous Solubility” value in “physchem” (setting [4]) worked out at 64 µg/mL.
Consider ziprasidone mesylate trihydrate, for which the AUC is 0 min-μgA/mL in data set [2] (0 min); 110 min-μgA/mL in data set [2] (4 min); 380 min-μgA/mL in data set [2] (10 min); 640 min-μgA/mL in data set [2] (20 min); 970 min-μgA/mL in data set [2] (40 min); 1,600 min-μgA/mL in data set [2] (90 min). Besides, the AUC in data set [2] (1200 min) was 11,200 min-μgA/mL. Moreover, the “Dissolved Ziprasidone Concentration” value in data set [2] (0 min) came to 0 μgA/mL; in data set [2] (4 min), 55 μgA/mL; in data set [2] (10 min), 33 μgA/mL; in data set [2] (20 min), 20 μgA/mL; in data set [2] (40 min) it was 13 μgA/mL; in data set [2] (90 min), 11 μgA/mL. For the same compound, the “Dissolved Ziprasidone Concentration” value in data set [2] (1200 min) stood at 6 μgA/mL. In addition, the “AUC90 relative to that provided by the free base” value in data set [2] (MFD solution pH 6.5) is reported as 13 fold. Also, the “MDC90 relative to that provided by the free base” value in data set [2] (MFD solution pH 6.5) is reported as 27 fold. Moreover, the “AUC90 (area under the concentration-versus time)” value in data set [2] (setting [5]) is 1,600 min*μgA/mL. For the same compound, in data set [2] (setting [5]), the “MDC90 (maximum dissolved concentration of ziprasidone)” value was 55 μgA/mL.

As usually defined, the Aqueous Solubility is the dissolved amount per volume that the medium holds. The solubility is how much of the substance goes into solution per volume.
